{"source": "paper PMC4745783", "about": "“The HGF inhibitory peptide HGP-1 displays promising in vitro and in vivo efficacy for targeted cancer therapy” (Oncotarget, 2015)", "molecules": {"B1": {"name": "HGF binding peptide-1, soluble synthetic peptide (peptide)", "peptide": "{FITC}-HRGLKWEIVPWSGCG", "notes": "the peptide of bacteria clone 1, synthesized free of bacteria; The methods say in general that FITC was labeled at the N-terminal of the peptides; also called HGP-1; FITC-labeled HGP-1; source: synthetic peptide (Shanghai Bootech Bioscience & Technology Co., Ltd.)"}}, "key": {"[1]": {"test_system": "A549 cells", "test": "MTT cytotoxicity in HGF-free environment", "conditions": "61.5 nM, 615 nM, 3.075 μM; 4-day, medium with 10% FBS; n = 4", "method": "MTT assay was also used to assess the cytotoxicity of peptides after 4-day incubation with peptides at different concentrations in the medium with 10% FBS. The cells were seeded in the 96-well plate at density of 2000 cells per well."}, "[2]": {"biological_target": "T1, human full length HGF (Homo sapiens, UniProt P14210)", "T1 construct": "purchased Sino Biological Inc. 10463- NHAC-A", "T1 sequence (P14210 32-728)": "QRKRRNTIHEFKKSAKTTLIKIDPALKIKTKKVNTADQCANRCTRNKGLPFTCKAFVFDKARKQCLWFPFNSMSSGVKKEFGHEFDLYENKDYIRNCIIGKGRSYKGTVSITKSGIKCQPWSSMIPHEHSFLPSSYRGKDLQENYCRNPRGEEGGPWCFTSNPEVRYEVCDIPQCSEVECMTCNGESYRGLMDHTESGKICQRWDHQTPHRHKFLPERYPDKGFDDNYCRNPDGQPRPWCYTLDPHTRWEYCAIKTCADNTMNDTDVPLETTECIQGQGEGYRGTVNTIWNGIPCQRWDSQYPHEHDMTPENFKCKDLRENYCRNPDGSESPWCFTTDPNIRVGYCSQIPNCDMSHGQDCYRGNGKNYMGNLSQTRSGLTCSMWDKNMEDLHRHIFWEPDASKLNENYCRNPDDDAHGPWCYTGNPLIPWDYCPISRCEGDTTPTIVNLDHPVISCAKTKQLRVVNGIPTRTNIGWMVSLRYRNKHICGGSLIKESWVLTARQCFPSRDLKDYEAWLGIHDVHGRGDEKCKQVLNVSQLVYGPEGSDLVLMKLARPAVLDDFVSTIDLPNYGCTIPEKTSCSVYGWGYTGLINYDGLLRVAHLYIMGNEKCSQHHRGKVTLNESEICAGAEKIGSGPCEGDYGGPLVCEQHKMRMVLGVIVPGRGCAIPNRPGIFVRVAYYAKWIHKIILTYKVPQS", "test": "SPR affinity and kinetics", "assay_type": "binding", "conditions": "Biacore X100, CM5 chip", "description": "(§1) To pre-assess the binding ability of peptide to HGF, peptides were coated on the fluorescence plates and incubated with HGF. The well coated with HGP-1 had at least 1500 times higher RFU than the one with SP-H1. […] In order to obtain a precise affinity data of HGP-1, the affinity and kinetics of HGP-1 against HGF was detected by SPR technique (Figure 3a). HGF was immobilized on the surface of a CM5 chip. […] Different concentrations of HGP-1 were injected over the surface of the chip followed by dissociation in buffer without peptide.\nKinetic (ka and kd) and affinity constant (KD) of soluble peptide were determined by surface plasmon resonance technique on a Biacore X100 instrument (GE healthcare). The research-grade CM5 sensor chip was activated following the process which was recommended in the amino coupling reagent kit. Human full length HGF was dissolved in PBS and diluted to a suitable concentration by 20 mM NaCOOH buffer (pH4.0) and immobilized on the chip, and 2000 resonance units were immobilized. The remaining reactive groups were inactivated by ethanolamine. The peptide was dissolved and diluted by HBS-EP ([…], 150 mM NaCl, 3 mM EDTA-Na2 and 0.005% P20, pH7.4). Samples composed of concentrations ranging from 0 to 100 μM of peptides were injected over the protein surface. […] Ka, Kd and KD were calculated by Biacore X100 Evaluation software."}, "[3]": {"test_system": "A549 cells", "assay_type": "cell-based, human", "description": "A549 cells were seeded in a 96-well plate at a density of 7000 cells per well. After overnight culture, cells were starved with serum free DMEM medium for 48 hours. […] After cultured for 4 days, the cell culture medium was changed with fresh medium containing 0.5 mg/mL 3-(4, 5-Dimethylthiazol-2-yl)-2, 5-diphenyltetrazolium bromide (MTT) solution for another 4 hours incubation at 37°C, in 5% CO2. Then, medium was removed and cells were lysed with dimethyl sulfoxide. The absorption of the solution in each well was measured at 490 nm on a VECTOR X4 Multilabel Plate Reader. IC50 value was also determined and calculated by GraphPad Prism 5."}, "[4]": {"test_system": "MDA-MB-435s cells", "test": "Wound healing (scratch) migration assay with HGF", "assay_type": "cell-based, human", "conditions": "HGF 0.625 nM, 2-day treatment", "description": "MDA-MB-435s cells were plated on a 24-well plate (1 × 10^5 cells/well), grown to an 80–90% confluent cell monolayer, and serum-starved for 24 hours. Wounds were scratched gently with tip of a plastic pipet and washed twice with PBS. Subsequently, HGF (0.625 nM) alone or coupled with peptides at the concentrations of 61.5 nM and 615 nM were added into the wells for 2 days treatment. Each well was photographed at 10 × magnification with light microscope before and after peptide treatment. The cell migration capabilities were assessed by calculating the width alteration of the wound area by Photoshop. The percentage of cell migration followed the equation: Percent migration=width before treatment-width after treatment/width before treatment×100%"}, "[5]": {"test_system": "HGF", "test": "ELISA, peptides coated on fluorescence plates and incubated with HGF", "assay_type": "binding, human", "conditions": "peptide coated, incubated with HGF", "description": "as §1"}, "[6]": {"test_system": "HGF", "test": "Binding of HGF to peptides displayed on bacteria, regular vs stringent washing, flow cytometry", "set-up": "species or system human", "conditions": "PE-A fluorescence; for binding to HGF in washed group: displayed on bacteria, washed (PBS pH 7.4, 3 times, 4°C, 10 min) vs regular washing", "description": "Peptide physicochemical properties were preliminarily analyzed with bacteria clones. To evaluate the binding ability of peptides on the surface of bacteria to HGF, the PE-A fluorescence intensity of each clone with different wash procedures were determined by flow cytometry. Bacteria clones undergoing regular or stringent washing procedures after incubation with HGF were prepared. […] Bacteria clones were subcultured and induced as described before. Then, 10^7 bacteria of each clone were incubated with biotinylated HGF referring to sorting procedure. After incubating with HGF, bacteria were divided into two groups. The ‘original’ group was washed referring to sorting procedure, and the ‘washed’ group would have a tough washing. After centrifuged at 3000 × g for 5 minutes, bacteria in ‘washed’ group were resuspended by 1 mL phosphate buffered saline (PBS, PH 7.4) and inverted at 4°C for 10 minutes. The washing steps were repeated for 3 times. Samples from two groups were analyzed by flow cytometry."}, "[7]": {"test_system": "MDA-MB-435s cells", "test": "Wound healing assay without HGF (non-specific inhibition)", "assay_type": "cell-based, human", "conditions": "61.5 nM and 615 nM; one day, medium with 10% FBS; n = 3", "description": "Wound healing assay was applied to evaluate the inhibitory effect of peptides to cell migration after one-day incubation with peptides at different concentrations in medium with 10% FBS."}, "[8]": {"biological_target": "T2, Recombinant human full length HGF (human, UniProt P14210 32-728)", "T2 construct": "also called hepatocyte growth factor; source: bought: Sino Biological Inc", "T2 sequence (P14210 32-728)": "as above", "test": "SPR; Biacore X100; HGF immobilised on a CM5 chip by amine coupling (2000 RU); peptide 0 to 100 μM in HBS-EP pH 7.4, 30 μL/min, 2 minutes injection, 8 minutes dissociation", "conditions": "both partners purified"}, "[9]": {"biological_target": "T2, Recombinant human full length HGF", "test": "cell-based or functional assay"}}, "note": "“Also recorded” adds a separate entry of the source. Where no end group is shown, it is not given here. The star is where a group is joined. FITC = O=C1OC2(c3ccc(O)cc3Oc3cc(O)ccc32)c2ccc(NC(=S)*)cc21", "data": [{"molecule": "HRGLKWEIVPWSGCG [HGP-1]", "values": [{"measurement": "cytotoxicity to cell proliferation in HGF-free environment", "setting": "[1]", "value": "did not exhibit detectable cytotoxicity"}, {"measurement": "kon", "setting": "[2]; HBS-EP pH 7.4, 30 μL/min, 2 min injection, read-out: ka", "value": 698, "unit": "M⁻¹ s⁻¹"}, {"measurement": "kb", "setting": "[2]; HBS-EP pH 7.4, 8 min dissociation, printed kb", "value": 0.001243, "unit": "s⁻¹"}, {"measurement": "IC50", "setting": "[3]; 48 h", "value": 496, "unit": "µM"}]}, {"molecule": "TLYEVDLREWCAGIVG [HGP-2]", "values": [{"measurement": "inhibitory effect on cell migration", "setting": "[4]", "value": "inhibited; also recorded: displayed a similar effect on MDA-MB-435s"}, {"measurement": "RFU relative to SP-H1 coated well", "setting": "[5]", "value": 700, "unit": "times"}, {"measurement": "binding to HGF in washed group", "setting": "[6]", "value": "had an obvious reduction"}, {"measurement": "inhibitory effect on migration without HGF", "setting": "[7]", "value": "no obvious inhibitory effect"}, {"measurement": "inhibitory effect on cell proliferation", "setting": "[3]; 61.5 nM, 615 nM, 3.075 μM, HGF, 4-day treatment, n = 3", "value": "inhibited"}]}, {"molecule": "TYFTWWELSPGCEEH [HGP-3]", "values": [{"measurement": "binding capability to HGF when displayed on the surface of bacteria, compared with HGP-2", "setting": "[6]; flow cytometry", "value": "higher binding capability to HGF compared with HGP-2"}, {"measurement": "binding to HGF in washed group", "setting": "[6]", "value": "bound to their targets as well as the regular ones"}]}, {"molecule": "B1", "values": [{"measurement": "Kd", "setting": "[8]", "value": 1.73, "unit": "µM"}, {"measurement": "koff", "setting": "[8]", "value": 0.00124, "unit": "s⁻¹"}, {"measurement": "kon", "setting": "[8]", "value": 698, "unit": "M⁻¹ s⁻¹"}, {"measurement": "IC50 of inhibition of HGF (1 nM)-mediated A549 proliferation, MTT assay, 4 days", "setting": "[9]", "value": 496, "unit": "µM"}]}]}
